Legend:
CYPSE Flatsedge [1] = assay: Preemergence weed control, flooded paddy (Table III); type: in vivo, Cyperus serotinus; set-up: scale not given here
Protocol: (§1) Preemergence herbicidal activity under flooded paddy conditions is determined as follows: plant seeds or propagating organs are planted in the top 0.5 cm of silt loam soil in 32 oz. plastic containers with a diameter of 10.5 cm and no drainage holes. Water is added to these containers and maintained at 1.5 to 3 cm above the soil surface for the duration of the experiment. The test compounds are applied as aqueous/acetone mixtures 50/50 v/v pipetted directly into the flood water to give the equivalent of about 0.0313 to 0.500 kg/ha of active ingredient. The treated containers are placed on greenhouse benches and cared for in accordance with conventional greenhouse procedures. Three to four weeks after treatment, the test is terminated and each container is examined and herbicidal effect rated according to the rating system provided in Example 185. The compounds evaluated are reported by compound number given in Example 185.

[2] = system: Morningglory Spp., Ipomoea Spp.; assay: Preemergence herbicidal evaluation, IPOSS; type: in vivo; conditions: 0.2500 kg/ha
Excerpt: (§2) Results of herbicide evaluation are expressed on a rating scale (0-9). The scale is based upon a visual observation of plant stand, vigor, malformation, size, chlorosis and overall plant appearance as compared with a control.
(§3) The preemergence herbicidal activity of the test compounds of the present invention is exemplified by the following tests in which the seeds of a variety of monocotyledonous and dicotyledonous plants are separately mixed with potting soil and planted on top of approximately one inch of soil in separate pint cups. After planting, the cups are sprayed with the selected aqueous acetone solution containing test compound in sufficient quantity to provide the equivalent of about 0.0156 to 0.500 kg per hectare of test compound per cup. The treated cups are then placed on greenhouse benches, watered and cared for in accordance with conventional greenhouse procedures. From four to five weeks after treatment, the tests are terminated and each cup is examined and rated according to the rating system provided in Example 185.
(§4) The compounds evaluated are reported by compound number given in Example 185.

ORYSAT Rice, Tebonnet = assay: Tolerance of transplanted rice to post-transplant application (Table III); type: in vivo, Oryza sativa; set-up: scale not given here; conditions: crop tolerance
Protocol: The tolerance of transplanted rice to post-transplanted herbicide applications is determined as follows: two ten-day-old rice seedlings (cv. Tebonnet) are transplanted into silt loam soil in 32 oz. plastic containers with a diameter of 10.5 cm and no drainage holes. After transplanting, the containers are flooded and the water level is maintained at 1.5 to 3 cm above the soil surface. Three days after transplanting, the flooded soil surface of the containers is treated with the selected aqueous/acetone 50/50 v/v mixture containing the test compounds to provide the equivalent of about 0.0313 to 0.500 kg/ha of active ingredient. The treated containers are placed on greenhouse benches, watered such that the water level is maintained as stated above, and cared for in accordance with conventional greenhouse procedures. Three to four weeks after treatment, the test is terminated and each container is examined and herbicidal effect rated according to the rating system provided in Example 185. The compounds evaluated are reported by compound number given in Example 185.

Soybean, Glycine max [3] = assay: Preemergence herbicidal evaluation, GLXMA; type: in vivo, (L.) Merr.; conditions: 0.2500 kg/ha
Excerpt: as §2, §3, §4

[4] = system: Lambsquarters, Common, Chenopodium album; assay: Preemergence herbicidal evaluation, CHEAL; type: in vivo, L.; conditions: 0.2500 kg/ha
Procedure, shortened: (§5)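 Compound is applied preemergence: seeds are sown in potting soil, and cups are sprayed with an aqueous acetone solution giving roughly 0.0156 to 0.500 kg/ha. After 4–5 weeks in the greenhouse, each cup is scored 0–9 by eye against a control.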

[5] = system: SAGPY Arrowhead (Pygmaea); assay: Postemergence weed control, flooded paddy (Table IV); type: in vivo, Sagittaria pygmaea; set-up: scale not given here
Procedure, shortened: (§6)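 Containers holding 3 to 5 cm weeds and rice at the 1.5 to 2.5 leaf stage are flooded and kept 1.5 to 3 cm deep. Test material is applied directly into the water at about 0.0313 to 0.500 kg/ha, then plants are held in the greenhouse for three to four weeks before rating.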

[6] = system: Velvetleaf, Abutilon theophrasti; assay: Postemergence herbicidal evaluation, ABUTH; type: in vivo, Medic.
Procedure, shortened: (§7)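 Seedlings grown about two weeks were sprayed with compound in 50/50 acetone/water containing 0.5% TWEEN 20 at rates equivalent to about 0.0157–0.500 kg/ha, nozzle at 40 psi. Injury was rated visually 0–9 versus control four to five weeks after treatment; replicate tests averaged.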

[7] = system: Lambsquarters, Common, Chenopodium album; assay: Postemergence herbicidal evaluation, CHEAL; type: in vivo, L.
Procedure, shortened: as §7

Soybean, Glycine max [8] = assay: Postemergence herbicidal evaluation, GLXMA; type: in vivo, (L.) Merr.; conditions: 0.2500 kg/ha
Protocol: (§8) In the tests, seedling plants are grown in jiffy flats for about two weeks. The test compounds are dispersed in 50/50 acetone/water mixtures containing 0.5% TWEEN®20, a polyoxyethylene sorbitan monolaurate surfactant of Atlas Chemical Industries, in sufficient quantities to provide the equivalent of about 0.0157 kg to 0.500 kg per hectare of active compound when applied to the plants through a spray nozzle operating at 40 psi for a predetermined time. After spraying, the plants are placed on greenhouse benches and are cared for in accordance with conventional greenhouse procedures. From four to five weeks after treatment, the seedling plants are examined and rated according to the rating system set forth below. Where more than one test is involved for a given compound, the data are averaged.
as §2

[9] = system: Morningglory Spp., Ipomoea Spp.; assay: Postemergence herbicidal evaluation, IPOSS; type: in vivo; conditions: 0.2500 kg/ha
Protocol: as §8, §2

[10] = system: Sicklepod, Cassia obtusifolia; assay: Preemergence herbicidal evaluation, CASOB; type: in vivo, L.; conditions: 0.2500 kg/ha
Procedure, shortened: as §5

[11] = system: SAGPY Arrowhead (Pygmaea); assay: Preemergence weed control, flooded paddy (Table III); type: in vivo, Sagittaria pygmaea; set-up: scale not given here
Protocol: as §1

[12] = system: Soybean, Williams, Glycine max; assay: Postemergence herbicidal evaluation, GLXMAW; type: in vivo, (L.) Merr. cv Williams
Procedure, shortened: as §7

[13] = system: Soybean, Williams, Glycine max; assay: Preemergence herbicidal evaluation, GLXMAW; type: in vivo, (L.) Merr. cv Williams; conditions: 0.2500 kg/ha
Procedure, shortened: as §5

CYPSE Flatsedge [14] = assay: Postemergence weed control, flooded paddy (Table IV); type: in vivo, Cyperus serotinus; set-up: scale not given here
Procedure, shortened: as §6

MOOVA Monochoria = assay: as above; type: in vivo, Monochoria vaginalis; set-up: scale not given here
Procedure, shortened: as §6

Galium, Galium aparine = assay: Preemergence herbicidal evaluation, GALAP; type: in vivo; conditions: 0.2500 kg/ha
Procedure, shortened: as §5

SMILES | herbicidal effect rating (CYPSE Flatsedge [1]; 0.0625 kg/ha) | herbicidal effect rating (CYPSE Flatsedge [1]; 0.1250 kg/ha) | herbicidal effect rating (CYPSE Flatsedge [1]; 0.2500 kg/ha) | herbicidal effect rating (CYPSE Flatsedge [1]; 0.5000 kg/ha) | herbicide rating (0-9) [2] | herbicidal effect rating (ORYSAT Rice, Tebonnet; 0.0625 kg/ha) | herbicidal effect rating (ORYSAT Rice, Tebonnet; 0.1250 kg/ha) | herbicidal effect rating (ORYSAT Rice, Tebonnet; 0.2500 kg/ha) | herbicidal effect rating (ORYSAT Rice, Tebonnet; 0.5000 kg/ha) | herbicide rating (0-9) (Soybean, Glycine max [3]) | herbicide rating (0-9) [4] | herbicidal effect rating ([5]; 0.1250 kg/ha) | herbicidal effect rating ([5]; 0.2500 kg/ha) | herbicidal effect rating ([5]; 0.5000 kg/ha) | herbicide rating (0-9) ([6]; 0.2500 kg/ha) | herbicide rating (0-9) ([7]; 0.2500 kg/ha) | herbicide rating (0-9) (Soybean, Glycine max [8]) | herbicide rating (0-9) [9] | herbicide rating (0-9) [10] | herbicidal effect rating ([11]; 0.0625 kg/ha) | further results
COC(=O)COc1ccc(C)cc1-c1nsc2ccc(-n3c(=O)cc(C(F)(F)F)n(C)c3=O)cc12 [Compound 2, Methyl {{2-{5-[3,6-dihydro-3-methyl-4-(trifluoromethyl) -2,6-dioxo-1(2H)-pyrimidinyl]-1,2-benzisothiazol-3-yl]-p-tolyl}oxy}acetate] | 0.0 | 0.0 | 0.0 | 0.0 | 9.0 | 3.0 | 3.0 | 5.0 | 9.0 | 7.0 | 9.0 | 0.0 | 2.0 | 4.0 | 9.0 | 9.0 | 9.0 | 9.0 | 9.0 | 0.0 | herbicidal effect rating (CYPSE Flatsedge [1]; 0.0313 kg/ha): 0.0; herbicidal effect rating (ORYSAT Rice, Tebonnet; 0.0313 kg/ha): 2.0; herbicide rating (0-9) ([6]; 0.0630 kg/ha): 9.0; herbicide rating (0-9) ([7]; 0.0630 kg/ha): 9.0; herbicidal effect rating ([11]; 0.0313 kg/ha): 0.0; herbicidal effect rating ([11]; 0.1250 kg/ha): 2.0; herbicidal effect rating ([11]; 0.2500 kg/ha): 4.0; herbicidal effect rating ([11]; 0.5000 kg/ha): 9.0; herbicide rating (0-9) ([12]; 0.0630 kg/ha): 8.8; herbicide rating (0-9) [13]: 8.5; herbicidal effect rating (CYPSE Flatsedge [14]; 0.1250 kg/ha): 0.0; herbicidal effect rating (CYPSE Flatsedge [14]; 0.2500 kg/ha): 0.0; herbicidal effect rating (CYPSE Flatsedge [14]; 0.5000 kg/ha): 0.0; herbicidal effect rating (MOOVA Monochoria; 0.1250 kg/ha): 9.0; herbicidal effect rating (MOOVA Monochoria; 0.2500 kg/ha): 9.0; herbicidal effect rating (MOOVA Monochoria; 0.5000 kg/ha): 9.0; herbicide rating (0-9) (Galium, Galium aparine): 9.0
COC(=O)C(C)Oc1ccc(C)cc1-c1nsc2ccc(-n3c(=O)cc(C(F)(F)F)n(C)c3=O)cc12 (stereo not drawn) [Compound 3] | 0.0 | 0.0 | 2.0 | 4.0 | 9.0 | 2.0 | 3.0 | 4.0 | 4.0 | 4.0 | 9.0 | 0.0 | 0.0 | 0.0 | 9.0 | 9.0 | 7.5 | 9.0 | 9.0 | 2.0 | herbicidal effect rating (CYPSE Flatsedge [1]; 0.0313 kg/ha): 0.0; herbicidal effect rating (ORYSAT Rice, Tebonnet; 0.0313 kg/ha): 2.0; herbicide rating (0-9) ([6]; 0.0630 kg/ha): 9.0; herbicide rating (0-9) ([7]; 0.0630 kg/ha): 9.0; herbicidal effect rating ([11]; 0.0313 kg/ha): 0.0; herbicidal effect rating ([11]; 0.1250 kg/ha): 6.0; herbicidal effect rating ([11]; 0.2500 kg/ha): 8.0; herbicidal effect rating ([11]; 0.5000 kg/ha): 9.0; herbicide rating (0-9) ([12]; 0.0630 kg/ha): 7.0; herbicide rating (0-9) [13]: 5.0; herbicidal effect rating (CYPSE Flatsedge [14]; 0.1250 kg/ha): 0.0; herbicidal effect rating (CYPSE Flatsedge [14]; 0.2500 kg/ha): 0.0; herbicidal effect rating (CYPSE Flatsedge [14]; 0.5000 kg/ha): 0.0; herbicidal effect rating (MOOVA Monochoria; 0.1250 kg/ha): 9.0; herbicidal effect rating (MOOVA Monochoria; 0.2500 kg/ha): 9.0; herbicidal effect rating (MOOVA Monochoria; 0.5000 kg/ha): 9.0; herbicide rating (0-9) (Galium, Galium aparine): 7.6
CCc1ccc(-c2nsc3ccc(-n4c(=O)cc(C(F)(F)F)n(C)c4=O)cc23)cc1 [Compound 5, 3-[3-(p-Ethylphenyl)-1,2-benzisothiazol-5-yl]-1-methyl-6-(trifluoromethyl)-2,4 (1H,3H)-pyrimidinedione] | 2.0 | 6.0 | 8.0 | 7.0 | 9.0 | 3.0 | 4.0 | 5.0 | 7.0 | 4.0 | 9.0 | 4.0 | 6.0 | 8.0 | 9.0 | 9.0 | 7.0 | 9.0 | 9.0 | 0.0 | herbicidal effect rating (CYPSE Flatsedge [1]; 0.0313 kg/ha): 0.0; herbicidal effect rating (ORYSAT Rice, Tebonnet; 0.0313 kg/ha): 2.0; herbicidal effect rating ([11]; 0.0313 kg/ha): 0.0; herbicidal effect rating ([11]; 0.1250 kg/ha): 2.0; herbicidal effect rating ([11]; 0.2500 kg/ha): 7.0; herbicidal effect rating ([11]; 0.5000 kg/ha): 7.0; herbicidal effect rating (CYPSE Flatsedge [14]; 0.1250 kg/ha): 0.0; herbicidal effect rating (CYPSE Flatsedge [14]; 0.2500 kg/ha): 0.0; herbicidal effect rating (CYPSE Flatsedge [14]; 0.5000 kg/ha): 0.0; herbicidal effect rating (MOOVA Monochoria; 0.1250 kg/ha): 9.0; herbicidal effect rating (MOOVA Monochoria; 0.2500 kg/ha): 9.0; herbicidal effect rating (MOOVA Monochoria; 0.5000 kg/ha): 9.0; herbicide rating (0-9) (Galium, Galium aparine): 6.0
Cc1nsc2ccc(-n3c(=O)cc(C(F)(F)F)n(C)c3=O)cc12 [Compound 6, 1-Methyl-3-(3-methyl-1,2-benzisothiazol-5-yl)-6-(trifluoromethyl)-2,4(1H,3H)-pyrimidinedione] | 4.0 | 7.0 | 9.0 | 9.0 | 9.0 | 8.0 | 8.0 | 8.0 | 8.0 | 9.0 | 9.0 | 6.0 | 8.0 | 9.0 | 9.0 | 9.0 | 6.0 | 9.0 | 9.0 | 4.0 | herbicide rating (0-9) ([6]; 0.0630 kg/ha): 9.0; herbicide rating (0-9) ([7]; 0.0630 kg/ha): 7.0; herbicidal effect rating ([11]; 0.1250 kg/ha): 7.0; herbicidal effect rating ([11]; 0.2500 kg/ha): 7.0; herbicidal effect rating ([11]; 0.5000 kg/ha): 9.0; herbicide rating (0-9) ([12]; 0.0630 kg/ha): 4.8; herbicide rating (0-9) ([12]; 0.2500 kg/ha): 7.0; herbicidal effect rating (CYPSE Flatsedge [14]; 0.1250 kg/ha): 7.0; herbicidal effect rating (CYPSE Flatsedge [14]; 0.2500 kg/ha): 7.0; herbicidal effect rating (CYPSE Flatsedge [14]; 0.5000 kg/ha): 9.0; herbicidal effect rating (MOOVA Monochoria; 0.1250 kg/ha): 9.0; herbicidal effect rating (MOOVA Monochoria; 0.2500 kg/ha): 9.0; herbicidal effect rating (MOOVA Monochoria; 0.5000 kg/ha): 9.0; herbicide rating (0-9) (Galium, Galium aparine): 9.0

Reference: patent US6156700A, “3-(1,2-Benzisothiazol- and isoxazol-5-yl)-2,4(1H,3H)-pyrimidinedione or thione and 3-(1,2-benzisothiazol- and isoxazol-5-yl)-4(3H)-pyrimidinone or thione herbicidal agents” (American Cyanmid Company, priority 1998, dated 2000)
